Measured values published in patent publication US9266830B2, “Pesticidal arylpyrrolidines” (Bayer Intellectual Property GmbH, priority 2007, dated 2016).

Legend:
Assay type in all cases: in vivo
[1] = test system: Boophilus microplus; experiment: Boophilus microplus (dip); conditions: application rate 100 ppm, adult engorged females, after 7 days
Protocol: (§1) Solvent: dimethyl sulfoxide
To produce a suitable preparation of active compound, 10 mg of active compound are dissolved in 0.5 ml solvent, and the concentrate is diluted with water to the desired concentration. Eight to ten adult engorged female Boophilus microplus ticks are placed in perforated plastic beakers and immersed in aqueous compound solution for one minute. Ticks are transferred to a filter paper in a plastic tray. Egg deposition of fertile eggs is monitored after. After 7 days mortality in % is determined 100% means that all the ticks have been killed; 0% means that none of the ticks have been killed.

[2] = test system: Boophilus microplus; experiment: Boophilus microplus test (injection); conditions: application rate 20 μg/animal, adult engorged females, after 7 days
Protocol: as §1
To produce a suitable preparation of active compound, 10 mg of active compound are dissolved in 0.5 ml solvent, and the concentrate is diluted with solvent to the desired concentration. Five adult engorged female ticks (Boophilus microplus) are injected with compound solution into the abdomen. Ticks are transferred into replica plates and incubated in a climate chamber for a period of time. Egg deposition of fertile eggs is monitored. After 7 days mortality in % is determined 100% means that all eggs are infertile; 0% means that all eggs are fertile.

[3] = test system: Lucilia cuprina larvae; experiment: Lucilia cuprina test (larvae in minced horse meat); conditions: application rate 100 ppm, larvae, after 2 days
Protocol: as §1
To produce a suitable preparation of active compound, 10 mg of active compound are dissolved in 0.5 ml solvent, and the concentrate is diluted with water to the desired concentration. Approximately 20-30 (Lucilia cuprina larvae) are transferred into a test tube containing 1 cm^3 of minced horse meat and 0.5 ml aqueous dilution of test compound. After 2 days mortality in % is determined 100% means that all the larvae have been killed; 0% means that none of the larvae have been killed.

[4] = test system: organic phosphorus agent- and carbamate agent-resistant Myzus persicae; experiment: Test for organic phosphorus agent- and carbamate agent-resistant Myzus persicae (spray, eggplant); conditions: 100 ppm active ingredient, 7 days
Protocol: If not mentioned otherwise, all sample solutions were prepared as described in Biological Test Example 1 and diluted to the appropriate (predetermined) concentrations.
About 30 to 50 of grown organic phosphorus agent- and carbamate agent-resistant Myzus persicae per seedling were inoculated to leaves at 2-leaf stage of eggplants grown in a pot of 6 cm in diameter, to which, after 1 day from the inoculation, the above prepared water-diluted solution of above active compound of the predetermined concentration was sufficiently sprayed with a spray gun. After the spraying, the pot was left in a greenhouse at room temperature for 7 days, followed by the pest-controlling rate calculated. The test was repeated twice.

[5] = test system: Amblyomma hebraeum; experiment: Amblyomma hebraeum test (AMBYHE), nymph immersion; conditions: for activity (mortality in %): application rate 100 ppm, nymphs, after 42 days
Protocol: as §1
To produce a suitable preparation of active compound, 10 mg of active compound are dissolved in 0.5 ml solvent, and the concentrate is diluted with water to the desired concentration. Nymphs of the tick Amblyomma hebraeum are placed in perforated plastic beakers and immersed in aqueous compound solution for one minute. Ticks are transferred to a filter paper in a Petri dish and incubated in a climate chamber for 42 days.
After 42 days mortality in % is determined 100% means that all the ticks have been killed; 0% means that none of the ticks have been killed.

[6] = test system: Musca domestica; experiment: Musca domestica test (sugar sponge); conditions: application rate 100 ppm, adults, after 2 days
Protocol: as §1
To produce a suitable preparation of active compound, 10 mg of active compound are dissolved in 0.5 ml solvent, and the concentrate is diluted with water to the desired concentration. Prior to the assay, a piece or kitchen sponge is soaked with a mixture of sugar and compound solution and placed into a container. 10 adults (Musca domestica) are placed into the container and closed with a perforated lid. After 2 days mortality in % is determined. 100% means that all the flies have been killed; 0% means that none of the flies have been killed.

SMILES: O=C(NCc1ccc(N2CCC(c3cc(Cl)cc(Cl)c3)(C(F)(F)F)C2)cc1Cl)NCC(F)(F)F (stereo not shown) [1-78]
- activity (mortality in %) [1]: 80%
- activity (100% means that all eggs are infertile) [2]: 100%

SMILES: CSCCNC(=O)NCc1ccc(N2CCC(c3cc(Cl)cc(Cl)c3)(C(F)(F)F)C2)cc1C(F)(F)F (stereo not shown) [1-244]
- activity (mortality in %) [3]: 80%
- activity (100% means that all eggs are infertile) [2]: 100%

SMILES: CCC(=O)NCc1ccc(N2CCC(c3cc(Cl)cc(Cl)c3)(C(F)(F)F)C2)cc1C(F)(F)F (stereo not shown) [1-143]
- insecticidal rate (pest-controlling rate) [4]: 100%
- Activity at 0.8 ppm ([5]; 0.8 ppm, comparison with WO2008/128711): 100%
- Activity at 4 ppm ([5]; 4 ppm, comparison with WO2008/128711): 100%
- activity (100% means that all eggs are infertile) [2]: 100%

SMILES: O=C(CC(F)(F)F)NCc1ccc(N2CCC(c3cc(Cl)cc(Cl)c3)(C(F)(F)F)C2)cc1C(F)(F)F (stereo not shown) [1-162]
- activity (mortality in %) [1]: 95%
- activity (100% means that all eggs are infertile) [2]: 100%

SMILES: COCCNC(=O)NCc1ccc(N2CCC(c3cc(Cl)cc(Cl)c3)(C(F)(F)F)C2)cc1C(F)(F)F (stereo not shown) [1-243]
- activity (mortality in %) [3]: 95%
- activity (100% means that all eggs are infertile) [2]: 100%

SMILES: CC(C)(C)OC(=O)NCc1ccc(N2CCC(c3cc(Cl)c(Cl)c(Cl)c3)(C(F)(F)F)C2)cc1Cl (stereo not shown) [1-694]
- activity (mortality in %) [3]: 80%
- activity (100% means that all eggs are infertile) [2]: 100%

SMILES: C#CCNC(=O)NCc1ccc(N2CCC(c3cc(Cl)cc(Cl)c3)(C(F)(F)F)C2)cc1C(F)(F)F (stereo not shown) [1-231]
- activity (mortality in %) [6]: 95%
- activity (100% means that all eggs are infertile) [2]: 100%

SMILES: CCNC(=O)NCc1ccc(N2CCC(c3cc(Cl)cc(Cl)c3)(C(F)(F)F)C2)cc1Cl (stereo not shown) [1-77]
- activity (mortality in %) [1]: 80%
- activity (100% means that all eggs are infertile) [2]: 100%

SMILES: CCC(=O)NCc1ccc(N2CCC(c3cc(Cl)cc(C(F)(F)F)c3)(C(F)(F)F)C2)cc1C(F)(F)F (stereo not shown) [1-356]
- insecticidal rate (pest-controlling rate) [4]: 100%

SMILES: CCSCC(=O)NCc1ccc(N2CCC(c3cc(Cl)cc(Cl)c3)(C(F)(F)F)C2)cc1C(F)(F)F (stereo not shown) [1-499]
- activity (mortality in %) [6]: 90%
- activity (100% means that all eggs are infertile) [2]: 100%

SMILES: O=C(Cn1cncn1)NCc1ccc(N2CCC(c3cc(Cl)cc(Cl)c3)(C(F)(F)F)C2)cc1C(F)(F)F (stereo not shown) [1-558]
- activity (mortality in %) [1]: 80%
- activity (100% means that all eggs are infertile) [2]: 100%

SMILES: CCNC(=O)NCc1ccc(N2CCC(c3cc(C(F)(F)F)cc(C(F)(F)F)c3)(C(F)(F)F)C2)cc1C(F)(F)F (stereo not shown) [1-302]
- activity (mortality in %) [1]: 90%
- activity (100% means that all eggs are infertile) [2]: 100%

SMILES: O=C(CC(F)(F)F)NCc1sc(N2CCC(c3cc(C(F)(F)F)cc(C(F)(F)F)c3)(C(F)(F)F)C2)nc1C(F)(F)F (stereo not shown) [5-150]
- activity (mortality in %) [6]: 95%
- activity (100% means that all eggs are infertile) [2]: 100%

SMILES: CCNC(=O)NCc1ccc(N2CCC(c3cc(Cl)cc(Cl)c3)(C(F)(F)F)C2)cc1C(F)(F)F (stereo not shown) [1-220]
- activity (mortality in %) [6]: 90%
- activity (100% means that all eggs are infertile) [2]: 100%

SMILES: O=C(NCCC(F)(F)F)NCc1ccc(N2CCC(c3cc(Cl)cc(Cl)c3)(C(F)(F)F)C2)cc1C(F)(F)F (stereo not shown) [1-238]
- activity (mortality in %) [5]: 85%
- activity (mortality in %) [6]: 90%
- activity (100% means that all eggs are infertile) [2]: 100%

SMILES: CSCCC(=O)NCc1ccc(N2CCC(c3cc(Cl)cc(Cl)c3)(C(F)(F)F)C2)cc1Cl (stereo not shown) [1-467]
- activity (mortality in %) [5]: 90%
- activity (mortality in %) [1]: 90%
- activity (100% means that all eggs are infertile) [2]: 100%

SMILES: NCc1ccc(N2CCC(c3cc(C(F)(F)F)cc(C(F)(F)F)c3)(C(F)(F)F)C2)cc1Cl (stereo not shown) [1-306]
- activity (mortality in %) [3]: 90%

SMILES: Cc1nc(N2CCC(c3cc(Cl)cc(Cl)c3)(C(F)(F)F)C2)ncc1C(=O)NCC(F)(F)F (stereo not shown) [2-69]
- activity (mortality in %) [3]: 90%
- activity (100% means that all eggs are infertile) [2]: 100%

SMILES: CC=CC(=O)NCc1ccc(N2CCC(c3cc(Cl)cc(Cl)c3)(C(F)(F)F)C2)cc1C(F)(F)F (stereo not shown) [1-174]
- activity (mortality in %) [1]: 80%
- activity (100% means that all eggs are infertile) [2]: 100%

SMILES: CCC(=O)NCc1sc(N2CCC(c3cc(Cl)cc(Cl)c3)(C(F)(F)F)C2)nc1C(F)(F)F (stereo not shown) [5-4]
- activity (mortality in %) [6]: 85%
- activity (100% means that all eggs are infertile) [2]: 100%

SMILES: O=C(CC(F)(F)F)NCc1sc(N2CCC(c3cc(Cl)cc(Cl)c3)(C(F)(F)F)C2)nc1C(F)(F)F (stereo not shown) [5-22]
- activity (mortality in %) [6]: 95%
- activity (100% means that all eggs are infertile) [2]: 100%

SMILES: O=C(CC(F)(F)F)NCc1ccc(N2CCC(c3cc(C(F)(F)F)cc(C(F)(F)F)c3)(C(F)(F)F)C2)cc1Br (stereo not shown) [1-314]
- insecticidal rate (pest-controlling rate) [4]: 100%
- activity (100% means that all eggs are infertile) [2]: 100%

SMILES: N#CCC(=O)NCc1ccc(N2CCC(c3cc(Cl)cc(Cl)c3)(C(F)(F)F)C2)cc1Cl (stereo not shown) [1-39]
- activity (mortality in %) [6]: 90%
- activity (100% means that all eggs are infertile) [2]: 100%

SMILES: O=C(NCc1ccc(N2CCC(c3cc(C(F)(F)F)cc(C(F)(F)F)c3)(C(F)(F)F)C2)cc1C(F)(F)F)NC1CC1 (stereo not shown) [1-305]
- activity (mortality in %) [5]: 90%
- activity (mortality in %) [1]: 80%
- activity (100% means that all eggs are infertile) [2]: 100%

SMILES: O=C(NCC(F)(F)F)c1sc(N2CCC(c3cc(Cl)c(Cl)c(Cl)c3)(C(F)(F)F)C2)nc1C(F)(F)F (stereo not shown) [4-21]
- activity (mortality in %) [6]: 90%
- activity (100% means that all eggs are infertile) [2]: 100%

SMILES: O=C(NCc1ccc(N2CCC(c3cc(Cl)cc(Cl)c3)(C(F)(F)F)C2)cc1C(F)(F)F)C(F)F (stereo not shown) [1-164]
- activity (mortality in %) [1]: 95%
- activity (100% means that all eggs are infertile) [2]: 100%

SMILES: CCCNC(=O)NCc1ccc(N2CCC(c3cc(Cl)cc(Cl)c3)(C(F)(F)F)C2)cc1Cl (stereo not shown) [1-79]
- activity (mortality in %) [3]: 90%
- activity (100% means that all eggs are infertile) [2]: 100%

SMILES: O=S(=O)(CC(F)(F)F)NCc1ccc(N2CCC(c3cc(Cl)c(Cl)c(Cl)c3)(C(F)(F)F)C2)cc1C(F)(F)F (stereo not shown) [1-334]
- activity (mortality in %) [3]: 90%
- activity (100% means that all eggs are infertile) [2]: 100%

SMILES: CNC(=O)NCc1ccc(N2CCC(c3cc(C(F)(F)F)cc(C(F)(F)F)c3)(C(F)(F)F)C2)cc1C(F)(F)F (stereo not shown) [1-301]
- activity (mortality in %) [1]: 80%
- activity (100% means that all eggs are infertile) [2]: 100%

SMILES: COCCNC(=O)NCc1ccc(N2CCC(c3cc(Cl)cc(Cl)c3)(C(F)(F)F)C2)cc1Cl (stereo not shown) [1-97]
- activity (mortality in %) [3]: 90%
- activity (100% means that all eggs are infertile) [2]: 100%

SMILES: O=C(NCc1ccccn1)c1sc(N2CCC(c3cc(Cl)cc(Cl)c3)(C(F)(F)F)C2)nc1C(F)(F)F (stereo not shown) [4-9]
- activity (mortality in %) [3]: 80%

SMILES: CCC(=O)NCc1cnc(N2CCC(c3cc(Cl)c(Cl)c(Cl)c3)(C(F)(F)F)C2)nc1C(F)(F)F (stereo not shown) [3-142]
- insecticidal rate (pest-controlling rate) [4]: 100%
- activity (100% means that all eggs are infertile) [2]: 100%

SMILES: O=C(NCc1ccc(N2CCC(c3cc(Cl)cc(Cl)c3)(C(F)(F)F)C2)cc1C(F)(F)F)N1CCOCC1 (stereo not shown) [1-257]
- activity (mortality in %) [3]: 95%
- activity (100% means that all eggs are infertile) [2]: 100%

SMILES: CN(Cc1ccc(N2CCC(c3cc(Cl)cc(Cl)c3)(C(F)(F)F)C2)cc1Cl)C(=O)C1CC1 (stereo not shown) [1-74]
- activity (mortality in %) [3]: 90%
- activity (100% means that all eggs are infertile) [2]: 100%

SMILES: C=CCNC(=O)NCc1ccc(N2CCC(c3cc(Cl)cc(Cl)c3)(C(F)(F)F)C2)cc1Cl (stereo not shown) [1-87]
- activity (mortality in %) [3]: 80%
- activity (100% means that all eggs are infertile) [2]: 100%

SMILES: O=C(CC(F)(F)F)NCc1ccc(N2CCC(c3cc(C(F)(F)F)cc(C(F)(F)F)c3)(C(F)(F)F)C2)cc1Cl (stereo not shown) [1-309]
- insecticidal rate (pest-controlling rate) [4]: 100%
- activity (100% means that all eggs are infertile) [2]: 100%

SMILES: CCCC(=O)NCc1ccc(N2CCC(c3cc(Cl)c(Cl)c(Cl)c3)(C(F)(F)F)C2)cc1C(F)(F)F (stereo not shown) [1-328]
- insecticidal rate (pest-controlling rate) [4]: 100%

SMILES: CC(C)CC(=O)NCc1ccc(N2CCC(c3cc(Cl)cc(Cl)c3)(C(F)(F)F)C2)cc1Cl (stereo not shown) [1-7]
- activity (mortality in %) [1]: 80%
- activity (100% means that all eggs are infertile) [2]: 100%

SMILES: NCc1ccc(N2CCC(c3cc(Cl)c(Cl)c(Cl)c3)(C(F)(F)F)C2)cc1Cl (stereo not shown) [1-336]
- activity (mortality in %) [3]: 90%
- activity (100% means that all eggs are infertile) [2]: 100%
